Values belong to the compound of their own block, whether it stands above or below them.
Experiments:
TYK2 = TYK2 (Homo sapiens (Human), UniProt P29597); assay: In vitro activity test of TYK2 kinase; format: biochemical
Description: (§1) Recombinant human JAK1, JAK2, JAK3, TyK2 protease, main instruments and reagents were provided by Eurofins in the UK
(§2) All compounds were prepared into a 100% DMSO solution and reached 50 times the final determined concentration. The test compound was diluted by 3 times the concentration gradient, and the final concentration was 10 μM to 0.001 μM, 9 concentrations in total, and the content of DMSO in the detection reaction was 2%. The working stock solution of the compound was added to a determination hole as the first component of the reaction, and then the remaining components were added according to the detailed scheme determination below.
(§3) Mg/ATP mixture was added to start the reaction. After incubation at room temperature for 40 minutes, 0.5% phosphoric acid was added to stop the reaction.

JAK1 = JAK1 (Homo sapiens (Human), UniProt P23458); assay: In vitro activity test of JAK1 kinase; format: biochemical
Chain of JAK1 (P23458 whole entry): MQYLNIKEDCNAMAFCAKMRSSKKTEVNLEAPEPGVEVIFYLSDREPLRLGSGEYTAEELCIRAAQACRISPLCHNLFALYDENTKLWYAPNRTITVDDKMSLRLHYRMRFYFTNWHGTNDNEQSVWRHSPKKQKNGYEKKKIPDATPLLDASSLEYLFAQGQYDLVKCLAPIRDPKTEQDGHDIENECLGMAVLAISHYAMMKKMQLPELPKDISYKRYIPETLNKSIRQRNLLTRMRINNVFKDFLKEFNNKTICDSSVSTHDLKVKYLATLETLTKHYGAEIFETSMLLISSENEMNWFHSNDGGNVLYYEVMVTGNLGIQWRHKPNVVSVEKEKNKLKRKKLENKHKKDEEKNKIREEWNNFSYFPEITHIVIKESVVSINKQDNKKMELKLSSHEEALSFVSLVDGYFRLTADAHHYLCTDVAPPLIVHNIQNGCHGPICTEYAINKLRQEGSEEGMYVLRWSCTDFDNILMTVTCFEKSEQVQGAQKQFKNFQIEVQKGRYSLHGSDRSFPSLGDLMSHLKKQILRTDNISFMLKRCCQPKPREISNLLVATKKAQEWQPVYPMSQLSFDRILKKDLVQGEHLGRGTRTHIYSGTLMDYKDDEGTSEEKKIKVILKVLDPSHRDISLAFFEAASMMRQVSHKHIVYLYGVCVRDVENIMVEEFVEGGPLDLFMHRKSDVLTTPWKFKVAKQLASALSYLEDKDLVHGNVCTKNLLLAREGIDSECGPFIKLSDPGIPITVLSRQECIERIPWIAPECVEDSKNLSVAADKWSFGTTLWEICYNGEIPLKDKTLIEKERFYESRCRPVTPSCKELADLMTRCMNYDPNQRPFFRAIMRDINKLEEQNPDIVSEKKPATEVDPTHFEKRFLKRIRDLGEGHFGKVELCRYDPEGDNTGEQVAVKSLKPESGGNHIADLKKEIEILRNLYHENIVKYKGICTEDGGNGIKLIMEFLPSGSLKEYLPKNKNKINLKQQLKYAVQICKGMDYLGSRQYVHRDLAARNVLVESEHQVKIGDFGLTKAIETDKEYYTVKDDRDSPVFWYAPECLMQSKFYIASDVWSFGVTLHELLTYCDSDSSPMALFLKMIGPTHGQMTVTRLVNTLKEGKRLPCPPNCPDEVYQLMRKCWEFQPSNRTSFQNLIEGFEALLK
Description: as §1, §2, §3

JAK3 = JAK3 (Homo sapiens (Human), UniProt P52333); assay: In vitro activity test of JAK3 kinase; format: biochemical
Chain of JAK3 (P52333 whole entry): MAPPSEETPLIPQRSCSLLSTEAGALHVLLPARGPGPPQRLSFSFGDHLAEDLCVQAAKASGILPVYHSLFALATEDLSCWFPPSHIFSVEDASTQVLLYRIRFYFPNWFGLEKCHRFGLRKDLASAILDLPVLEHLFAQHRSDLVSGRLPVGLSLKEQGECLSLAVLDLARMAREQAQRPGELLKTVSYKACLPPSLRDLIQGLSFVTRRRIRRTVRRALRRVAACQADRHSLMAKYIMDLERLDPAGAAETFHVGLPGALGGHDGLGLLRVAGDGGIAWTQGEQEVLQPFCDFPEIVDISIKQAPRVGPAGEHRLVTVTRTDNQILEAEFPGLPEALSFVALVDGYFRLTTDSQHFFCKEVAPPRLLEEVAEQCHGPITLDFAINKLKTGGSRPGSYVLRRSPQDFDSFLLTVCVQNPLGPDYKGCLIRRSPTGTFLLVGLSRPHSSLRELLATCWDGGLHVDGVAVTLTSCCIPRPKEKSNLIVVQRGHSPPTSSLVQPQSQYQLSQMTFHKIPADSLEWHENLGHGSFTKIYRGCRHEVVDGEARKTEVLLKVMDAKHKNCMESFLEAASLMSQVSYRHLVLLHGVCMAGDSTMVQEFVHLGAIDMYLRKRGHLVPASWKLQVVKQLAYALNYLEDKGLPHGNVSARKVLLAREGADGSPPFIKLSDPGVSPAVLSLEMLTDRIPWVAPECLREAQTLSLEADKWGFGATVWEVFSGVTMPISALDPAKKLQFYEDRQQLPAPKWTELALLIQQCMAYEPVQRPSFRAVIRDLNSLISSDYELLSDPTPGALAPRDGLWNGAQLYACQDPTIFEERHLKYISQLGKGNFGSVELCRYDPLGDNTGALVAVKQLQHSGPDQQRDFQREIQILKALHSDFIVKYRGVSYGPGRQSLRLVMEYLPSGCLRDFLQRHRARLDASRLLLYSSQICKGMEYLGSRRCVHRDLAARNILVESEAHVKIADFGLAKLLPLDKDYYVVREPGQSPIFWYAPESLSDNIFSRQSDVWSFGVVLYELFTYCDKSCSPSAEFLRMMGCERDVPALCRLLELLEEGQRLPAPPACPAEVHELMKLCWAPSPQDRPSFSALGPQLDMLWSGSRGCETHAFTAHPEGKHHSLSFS
Description: as §1, §2, §3

JAK2 = JAK2 (Homo sapiens (Human), UniProt O60674); assay: In vitro activity test of JAK2 kinase; settings: read-out: JAK2 (IC50)
Chain of JAK2 (O60674 whole entry): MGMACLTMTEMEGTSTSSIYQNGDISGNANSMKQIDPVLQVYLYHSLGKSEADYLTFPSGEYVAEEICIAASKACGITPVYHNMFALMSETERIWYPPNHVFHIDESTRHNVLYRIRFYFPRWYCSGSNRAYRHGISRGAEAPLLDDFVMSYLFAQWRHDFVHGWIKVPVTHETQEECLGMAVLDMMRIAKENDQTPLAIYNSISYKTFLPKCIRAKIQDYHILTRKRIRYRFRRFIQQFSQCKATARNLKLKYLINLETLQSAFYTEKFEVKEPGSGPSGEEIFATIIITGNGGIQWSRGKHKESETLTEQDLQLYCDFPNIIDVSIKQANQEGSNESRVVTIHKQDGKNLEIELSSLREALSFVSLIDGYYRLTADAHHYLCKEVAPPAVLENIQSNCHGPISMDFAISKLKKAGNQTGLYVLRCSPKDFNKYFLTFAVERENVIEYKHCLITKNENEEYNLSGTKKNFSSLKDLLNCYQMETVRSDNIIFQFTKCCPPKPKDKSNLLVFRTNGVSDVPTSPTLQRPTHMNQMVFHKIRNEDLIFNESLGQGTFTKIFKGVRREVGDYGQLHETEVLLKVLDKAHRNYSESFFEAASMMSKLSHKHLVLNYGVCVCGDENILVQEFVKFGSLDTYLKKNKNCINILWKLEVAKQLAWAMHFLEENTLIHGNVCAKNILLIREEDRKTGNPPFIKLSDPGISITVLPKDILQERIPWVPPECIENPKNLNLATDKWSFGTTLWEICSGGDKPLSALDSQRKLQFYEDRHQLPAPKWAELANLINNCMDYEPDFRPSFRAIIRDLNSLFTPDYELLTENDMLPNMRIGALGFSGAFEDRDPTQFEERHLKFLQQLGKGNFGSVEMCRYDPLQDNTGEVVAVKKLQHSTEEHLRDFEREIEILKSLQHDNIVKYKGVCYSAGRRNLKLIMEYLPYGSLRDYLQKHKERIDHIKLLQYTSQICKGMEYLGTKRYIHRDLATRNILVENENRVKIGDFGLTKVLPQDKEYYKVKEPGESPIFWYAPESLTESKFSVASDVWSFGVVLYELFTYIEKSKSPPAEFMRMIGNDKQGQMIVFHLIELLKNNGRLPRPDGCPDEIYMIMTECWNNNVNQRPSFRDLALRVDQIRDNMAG

[1] = tested on: DSS induced ulcerative colitis and Crohn's disease in mice; assay: In vivo pharmacodynamic study on DSS induced inflammatory bowel disease (IBD) in mice; parameters: species or system mice (C57BL/6); Colon length: unit not given here; settings: 15 mg/kg p.o. qd, Mean±SEM
Source text: Inflammatory bowl disease (IBD) is a kind of recurrent disease. It is difficult to cure, has a high recurrence rate, and has a poor prognosis, it has a certain correlation with the incidence of colon cancer. The development of drugs for the treatment of IBD will help alleviate the symptoms of ulcerative colitis and Crohn's disease and improve the quality of life of patients. The mouse inflammation model induced by dextran sulfate sodium (DSS) is similar to the human disease ulcerative colitis and Crohn's disease. It is a common classical model for preclinical evaluation of drug efficacy.
Preparation method of DSS: 20 g DSS was weighed, 1000 mL drinking water was added to form 2% DSS solution, and stored in a 4° C. refrigerator. It is effective within one month.
Preparation method of a solvent: Vehicle solution is an aqueous solution containing 0.5% methylcellulose and 0.5% Tween 80. Firstly, 5 g of methylcellulose was dissolved in 990 mL of pure water, then 5 g of Tween 80 was added in small amount for many times, mixed evenly and stored at room temperature.
Preparation method of compounds: the compound was weighed, an aqueous solution with a mass ratio of 0.5% methylcellulose+0.5% Tween 80 was added, and it was processed by ultrasonic until it was dissolved.
The adaptation period of the animals was 3 days. After adaptation, the animals were weighed every day. The blank group was given drinking water, and the other groups were given drinking water containing 2% DSS. The water volume was 5 mL/animal/day. The animals in the test drug group were administrated by gavage once a day. The blank group and […] group were given the same volume of vehicle, with the administration volume of 10 mL/kg. Every other day, the fecal viscosity was evaluated, feces were collected for fecal occult blood detection, and the disease activity index (DAI) score was calculated. DSS consumption was detected every day. Fresh DSS solution was replaced every two days. The dosing cycle was continuous intragastric administration for 7 days, followed by 4 days of drug withdrawal, followed by 7 days of continuous intragastric administration. Normal drinking water was changed when intragastric administration was stopped.
DAI is the sum of the scores of body weight, fecal viscosity and fecal occult blood. Among them, the semi quantitative detection method of piramine cave was adopted for detecting fecal occult blood, including adding piramine cave to the sample first, then adding hydrogen peroxide and ethanol solution, and reading and scoring the color within 2 min. Immediately generating purple blue is marked as 4+, generating the purple blue within 10 s is marked as 3+, generating purple red within 1 min is marked as 2+, and gradually generating the purple red within 1-2 min is marked as 1+, and generating no color reaction of purple orchid or purple red within the reading time is recorded as negative (−). After the experiment, the colon and spleen were taken, and the length of colon and the weight of spleen were measured. The spleen index was the ratio of spleen weight to body weight.

[2] = tested on: DNCB induced allergic dermatitis in mice; assay: In vivo pharmacodynamic study on DNCB induced allergic dermatitis (AD) in mice
[3] = after the experiment, 30 mg/kg p.o. qd, 28 days, Mean±SEM

Chain of TYK2 (P29597 whole entry): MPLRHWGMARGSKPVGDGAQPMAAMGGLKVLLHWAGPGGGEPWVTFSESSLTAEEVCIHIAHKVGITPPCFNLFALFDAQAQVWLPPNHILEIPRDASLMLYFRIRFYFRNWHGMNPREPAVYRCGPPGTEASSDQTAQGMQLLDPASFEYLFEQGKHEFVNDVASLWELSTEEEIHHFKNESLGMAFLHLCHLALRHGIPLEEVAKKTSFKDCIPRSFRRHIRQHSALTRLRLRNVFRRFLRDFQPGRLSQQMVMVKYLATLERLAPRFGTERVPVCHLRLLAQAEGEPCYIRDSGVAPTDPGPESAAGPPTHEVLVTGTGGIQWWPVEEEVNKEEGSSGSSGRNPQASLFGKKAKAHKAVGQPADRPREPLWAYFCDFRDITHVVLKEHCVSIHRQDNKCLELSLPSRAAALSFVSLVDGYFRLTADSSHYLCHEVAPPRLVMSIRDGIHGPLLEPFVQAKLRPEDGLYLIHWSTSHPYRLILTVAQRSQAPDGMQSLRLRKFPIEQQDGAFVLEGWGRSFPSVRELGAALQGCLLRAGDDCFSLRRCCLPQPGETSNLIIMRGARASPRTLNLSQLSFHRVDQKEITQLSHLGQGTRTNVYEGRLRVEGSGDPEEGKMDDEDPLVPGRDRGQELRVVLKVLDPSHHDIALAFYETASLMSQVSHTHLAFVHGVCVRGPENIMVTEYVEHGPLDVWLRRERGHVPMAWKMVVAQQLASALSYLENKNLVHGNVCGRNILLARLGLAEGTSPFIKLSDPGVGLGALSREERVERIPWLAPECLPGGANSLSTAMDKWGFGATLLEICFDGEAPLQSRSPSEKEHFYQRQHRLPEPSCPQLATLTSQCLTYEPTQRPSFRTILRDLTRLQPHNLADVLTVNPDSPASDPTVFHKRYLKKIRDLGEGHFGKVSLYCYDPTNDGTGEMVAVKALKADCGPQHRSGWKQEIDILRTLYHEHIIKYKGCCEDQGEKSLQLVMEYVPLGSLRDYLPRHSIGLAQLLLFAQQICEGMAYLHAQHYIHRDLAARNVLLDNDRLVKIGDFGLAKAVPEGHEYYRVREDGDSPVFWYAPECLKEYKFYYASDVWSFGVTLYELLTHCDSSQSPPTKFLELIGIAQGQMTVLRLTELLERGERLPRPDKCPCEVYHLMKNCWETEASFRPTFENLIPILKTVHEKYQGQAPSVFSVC

SMILES: O=C(Nc1nc2cccc(C3CCC4(CC3)CCN(C(=O)C3CC3(F)F)C4)n2n1)C1CC1 (single isomer, unassigned) [Compound 5-7]
IC50 (TYK2): 67 nM
IC50 (JAK1): 31 nM
IC50 (JAK3): 5760 nM
IC50 (JAK2): 324 nM

SMILES: O=C(Nc1nc2cccc(C3CCC4(CC3)CCN(C(=O)C3CC3(F)F)C4)n2n1)C1CC1 (single isomer, unassigned) [Compound 5-8]
IC50 (TYK2): 692 nM
IC50 (JAK1): 75 nM
IC50 (JAK3): 7350 nM
IC50 (JAK2): 789 nM

IC50 (TYK2): 830 nM
IC50 (JAK1): 63 nM
IC50 (JAK3): > 10000 nM
SMILES: O=C(Nc1nc2cccc([C@H]3CCC4(C3)CN(C(=O)[C@@H]3CC3(F)F)C4)n2n1)C1CC1 (single isomer, unassigned) [Compound 7-7]

Effect on the weight of mice (in words) ([2]; 30 mg/kg p.o. qd, 28 days): no significant effect
Weight of mice ([2]; day 1, 30 mg/kg p.o. qd from day 4, Mean±SEM): 19.45 ± 0.59
Weight of mice ([2]; day 4, 30 mg/kg p.o. qd, Mean±SEM): 20.15 ± 0.46
Weight of mice ([2]; day 10, 30 mg/kg p.o. qd, Mean±SEM): 20.21 ± 0.62
Weight of mice ([2]; day 13, 30 mg/kg p.o. qd, Mean±SEM): 20.24 ± 0.41
Weight of mice ([2]; day 16, 30 mg/kg p.o. qd, Mean±SEM): 20.63 ± 0.43
Weight of mice ([2]; day 19, 30 mg/kg p.o. qd, Mean±SEM): 22.50 ± 0.40
Weight of mice ([2]; day 22, 30 mg/kg p.o. qd, Mean±SEM): 23.97 ± 0.42
Weight of mice ([2]; day 25, 30 mg/kg p.o. qd, Mean±SEM): 22.45 ± 0.36
Weight of mice ([2]; day 28, 30 mg/kg p.o. qd, Mean±SEM): 22.66 ± 0.34
SMILES: N#CC1(C(=O)N2CC3(CCC(c4cccc5nc(NC(=O)C6CC6)nn45)CC3)C2)CC1 [Compound 1-11]
Colon length ([1]; after the experiment): 2.84 ± 0.21
Weight of mice ([1]; day 1): 22.63 ± 0.29
DAI score ([1]; day 2): 0.30 ± 0.15
Weight of mice ([1]; day 2): 22.64 ± 0.28
Weight of mice ([1]; day 3): 22.20 ± 0.28
DAI score ([1]; day 4): 1.50 ± 0.34
Weight of mice ([1]; day 4): 21.75 ± 0.25
Weight of mice ([1]; day 5): 20.90 ± 0.30
DAI score ([1]; day 6): 3.50 ± 0.27
Weight of mice ([1]; day 6): 20.33 ± 0.28
Weight of mice ([1]; day 7): 20.64 ± 0.38
DAI score ([1]; day 8): 4.20 ± 0.79
Weight of mice ([1]; day 8): 20.44 ± 0.58
Weight of mice ([1]; day 9): 19.49 ± 0.77
Weight of mice ([1]; day 10): 19.00 ± 0.87
Weight of mice ([1]; day 11): 19.73 ± 0.77
DAI score ([1]; day 12): 3.11 ± 0.49
Weight of mice ([1]; day 12): 20.09 ± 0.90
Weight of mice ([1]; day 13): 20.88 ± 0.86
DAI score ([1]; day 14): 3.22 ± 0.79
Weight of mice ([1]; day 14): 20.67 ± 0.84
Weight of mice ([1]; day 15): 20.82 ± 0.91
DAI score ([1]; day 16): 4.44 ± 0.67
Weight of mice ([1]; day 16): 20.41 ± 1.05
Weight of mice ([1]; day 17): 19.85 ± 1.05
DAI score ([1]; day 18): 5.89 ± 0.51
Weight of mice ([1]; day 18): 18.84 ± 1.06
IgE concentration in serum [2, 3]: 7.46 ± 1.34
Thickness of the right ear [2, 3]: 0.283 ± 0.006
Skin score ([2]; day 3, 30 mg/kg p.o. qd from day 4, Mean±SEM): 0.9 ± 0.3
Skin score ([2]; day 9, 30 mg/kg p.o. qd, Mean±SEM): 3.6 ± 1.1
Skin score ([2]; day 15, 30 mg/kg p.o. qd, Mean±SEM): 4.4 ± 0.8
Skin score ([2]; day 21, 30 mg/kg p.o. qd, Mean±SEM): 5.4 ± 0.7
Skin score ([2]; day 27, 30 mg/kg p.o. qd, Mean±SEM): 2.9 ± 1.2

Reference: patent publication US12419873B2, “Use of JAK inhibitors in preparation of drugs for treating JAK kinase-related diseases” (ZHUHAI UNITED LABORATORIES CO., LTD., priority 2020, dated 2025)
